Key:
RAW264.7 cells = details: CCK-8, 24 h, concentration as high as 200 μg/mL
Experimental: (§1) Mouse peritoneal macrophages were prepared according to previous method. Brewer thioglycollate medium (3 %, w/v, Sigma-Aldrich, USA) was intraperitoneally injected to C57BL/6 mouse. After 3 days, the mouse was euthanized and intraperitoneally injected with 20 mL RPMI-1640 medium to collect peritoneal macrophages. RAW264.7 cells were cultured in RPMI 1640 medium (10 % FBS, 100 U/mL penicillin and 100 μg/mL streptomycin, Gibco, USA) at 37 °C humidified with 5 % CO2. Mouse macrophages, peritoneal macrophages and RAW264.7 cells, were seeded in a 96-well (2 × 10^4 cells/well) plate, and cultured in RPMI 1640 medium (100 μL) supplemented with 2 % FBS, 100 U/mL penicillin and 100 μg/mL streptomycin (Gibco, USA) at 37 °C in a humidified 5 % CO2 incubator. The cytotoxicity of cecropin-TY1 against mouse macrophages was determined by Cell Counting Kit-8 assay (CCK-8) following the kit instruction. In brief, serial 2-fold peptide dilutions were added to each well, and control wells received the same volume of phosphate-buffered solution (PBS, 8 g/L NaCl, 0.2 g/L KCl, 0.2 g/L KH2PO4, 2.89 g/L Na2HPO4 · 12H2O, pH 7.4). After 24-h incubation, CCK-8 solution (10 μL/well) was added and incubated for an additional 4 h. The absorbance at 450 nm was monitored on a microplate reader (Epoch Etock, BioTek, USA).

[1] = system: mouse peritoneal macrophages; details: CCK-8, 24 h, concentration as high as 200 μg/mL
Experimental: as §1

TNF-α production = assay: LPS-stimulated TNF-α production in peritoneal macrophages (ELISA); assay type: cell-based, mouse; details: 20 μg/mL peptide, 100 ng/mL LPS, 6 h
Experimental: (§2) Cells were incubated with peptides (0, 5, 10, and 20 μg/mL) with or without 100 ng/mL LPS (from E. coli 0111:B4, Sigma-Aldrich, USA) for 6 h. After treatment, culture medium was collected for TNF-α, IL-1β and IL-6 quantification using enzyme-linked immunosorbent assay (ELISA) kits (Dakewei, China). Cells were washed with ice-cold PBS and lysed by Trizol reagent (Life Tech, USA). Total RNA was extracted for cDNA synthesis to quantify TNF-α, IL-1β and IL-6 transcription levels by qPCR as described in qPCR section.

IL-6 production = assay: LPS-stimulated IL-6 production in peritoneal macrophages (ELISA); assay type: cell-based, mouse; details: 20 μg/mL peptide, 100 ng/mL LPS, 6 h
Experimental: as §2

P-ERK1 = assay: Western blot, LPS-induced P-ERK1 in peritoneal macrophages; assay type: cell-based, mouse; details: 20 μg/mL peptide, 100 ng/mL LPS, 30 min, band density ratio to β-actin
Experimental: (§3) Cells were treated with different concentrations of cecropin-TY1 (0, 5, 10, and 20 μg/mL) in the presence or absence of 100 ng/mL LPS (from E. coli 0111:B4, Sigma-Aldrich, USA). After 30-min incubation, cells were washed twice with ice-cold PBS and lysed with RIPA lysis buffer (Beyotime, China) on ice for 30 min according to our previous method. Protein concentration was quantified by BCA Protein Assay Kit (Thermo, Germany). About 40 μg protein was separated on a 10 % SDS-PAGE gel and transferred to a polyvinylidene difluoride membrane. The membrane was blocked by incubating with 5 % BSA (BD, USA) dissolved in Tris-buffered solution Tween-20 (TBST, 2.42 g/L Trisbase, 8 g/L NaCl, 0.1 % Tween 20, pH 7.6) for 2 h at room temperature. The membrane was then incubated with primary antibodies against ERK, phospho-ERK, p38, phospho-p38, JNK, phospho-JNK, phospho-IκBα, NF-κB p65 and phospho-NF-κB p65 (1:2000, Cell Signaling Technology, USA) and GAPDH/β-actin (1:5000, Santa Cruz Biotechnology, USA) overnight at 4 °C, respectively. After incubation, the immunoblot was washed three times with TBST for 5 min each time, and incubated with secondary antibody (1:5000, Cell Signaling Technology, USA) at room temperature for 1 h. Signals were measured by enhanced chemiluminescence kit in a dark room after washing three times with TBST for 10 min each time (TIANGEN, China).

P-JNK1 = assay: Western blot, LPS-induced P-JNK1 in peritoneal macrophages; assay type: cell-based, mouse; details: 20 μg/mL peptide, 100 ng/mL LPS, 30 min, band density ratio to β-actin
Experimental: as §3

P-JNK2 = assay: Western blot, LPS-induced P-JNK2 in peritoneal macrophages; assay type: cell-based, mouse; details: 20 μg/mL peptide, 100 ng/mL LPS, 30 min, band density ratio to β-actin
Experimental: as §3

P-p65 = assay: Western blot, LPS-induced P-p65 in peritoneal macrophages; assay type: cell-based, mouse; details: 20 μg/mL peptide, 100 ng/mL LPS, 30 min, band density ratio to β-actin
Experimental: as §3

[2] = Dissociation of FITC-conjugated LPS aggregates (fluorescence); assay type: binding; details: FITC-LPS 1 μg/mL, 10 mM phosphate buffer pH 6.0, ex 480 nm / em 515 nm
Experimental: (§4) Fluorescein isothiocyanate (FITC)-conjugated LPS (1 μg/mL, Sigma-Aldrich, USA) was excited at 480 nm and monitored the changes in the emission of FITC-LPS at 515 nm in the incubation of different concentrations of peptides (0, 12.5, 25, 50, 100 μg/mL). Peptides were dissolved in 10 mM phosphate buffer at pH 6.0. The interactions between peptides and LPS were further assessed by a quantitative Chromogenic End-point Tachypleus amebocyte lysate (TAL) assay kit (Xiamen Houshiji, China) following the kit instruction. Briefly, different concentrations of peptides (0, 12.5, 25, 50, 100 μg/mL) were incubated with LPS (1 μg/mL, Sigma-Aldrich, USA) at 37 °C for 30 min. After incubation, 100 μL TAL solution was added to 100 μL LPS-peptide mixtures in a pyrogen-free tube and incubated at 37 °C for 10 min. Then, LPS-peptide mixtures were added with pre-warmed substrate solution for additional 6-min incubation at 37 °C. Lastly, the absorbance at 545 nm was measured on a microplate reader (Epoch Etock, BioTek, USA). The percentages of LPS-neutralizing activity were calculated.

[3] = LPS neutralization, chromogenic end-point TAL assay; assay type: biochemical; details: LPS 1 μg/mL, 37 °C, 30 min
Experimental: as §4

[4] = cited from earlier work
Source text: Supplement 13071_2015_1149_MOESM1_ESM.docx, table 2: Table S2. Primary structural and biochemical characteristics of cecropin-TY1. | column: […]-NH2 39 +5 3970.22 Da 3970.66 Da 11.17

With “GWLKKIGKKIERVGQNVRNAAISTLPIAQGAAGVAGALN-NH2 [cecropin-TY1, cecropin antimicrobial peptide from salivary glands of horsefly Tabanus yao, 39 residues, C-terminally amidated, synthesized]” as the substance, how does the “cytotoxicity (cell viability)” value (RAW264.7 cells) read?
Its value is “didn’t show any cytotoxicity”.

And the “cytotoxicity (cell viability)” value [1]?
Its value is “didn’t show any cytotoxicity”.

And the “reduction of LPS-induced TNF-α production” value (TNF-α production)?
The value was 72.1%.

And the “reduction of LPS-induced IL-6 production” value (IL-6 production)?
Its value is 76.2%.

What about the “inhibition of LPS-induced P-ERK1 expression” value (P-ERK1) of the same substance?
Its value is 75.5%.

And the “inhibition of LPS-induced P-JNK1 expression” value (P-JNK1)?
The value was 61.9%.

What about the “inhibition of LPS-induced P-JNK2 expression” value (P-JNK2) of the same substance?
The value was 66.1%.

What about the “inhibition of LPS-induced P-p65 expression” value (P-p65) of the same substance?
The value was 55.9%.

What about the “increase of FITC-LPS fluorescence” value ([2]; 12.5 μg/mL peptide) of the same substance?
Its value is 33.4%.

What about the “increase of FITC-LPS fluorescence” value ([2]; 25 μg/mL peptide) of the same substance?
The value was 46.7%.

What about the “increase of FITC-LPS fluorescence” value ([2]; 50 μg/mL peptide) of the same substance?
Its value is 63.3%.

What about the “increase of FITC-LPS fluorescence” value ([2]; 100 μg/mL peptide) of the same substance?
Its value is 71.6%.

What about the LPS neutralized ([3]; 12.5 μg/mL peptide) of the same substance?
The LPS neutralized was 28.8%.

What about the LPS neutralized ([3]; 25 μg/mL peptide) of the same substance?
Its LPS neutralized is 41.3%.

What about the LPS neutralized ([3]; 50 μg/mL peptide) of the same substance?
The LPS neutralized was 47.9%.

And the LPS neutralized ([3]; 100 μg/mL peptide)?
Its LPS neutralized is 65.1%.

What about the Net charges [4] of the same substance?
Its Net charges is 5.

And the “Theoretical pI” value ([4]; theoretical)?
Its value is 11.17.
